Bridge positions count the residues as written; N and C are the ends. Peptide text beside a SMILES is read from it.
Test: Solid-state chemical stability of amorphous and α-crystalline linaclotide (HPLC assay after storage at 40° C./75% RH)
Format: physicochemical
Conditions: for Degradation Products / Normalized Assay / Acetylation Product / Hydrolysis Product / Non-disulfide linked multimers / Water-Mediated Products: induction sealed 45 cc HDPE bottles; for Remaining fraction (not assay, not degradation products), may comprise multimers: 3 months at 40° C./75% RH
Experimental: The relative chemical purity and stability of amorphous and crystalline linaclotide was studied using reverse phase high performance liquid chromatography (HPLC). The chemical identification was conducted using reverse phase high performance liquid chromatography coupled with mass spectroscopy (HPLC-MS). The mass spectroscopic analysis was performed at Enhance MS scan (EMS) mode with positive ionization and a scan range (m/z) of 600-1600.
A Perkin Elmer series 200 LC instrument (Perkin Elmer, Waltham, Mass.) was used with a YMC Pro C18 column (150 mm×3.0 mm, 3 μm) (Waters Corporation, Milford, Mass.). The column temperature was set at 40° C. while the auto sampler temperature was maintained at 4° C. using a peltier tray. The injection volume was 50 μl. A gradient (0.6 ml/minute) run was used comprising of two solvents; A (97.9% Water, 2% Acetonitrile, 0.1% Trifluoroacetic Acid) and B (94.9% Acetonitrile, 5% Water, 0.1% Trifluoroacetic Acid). The gradient was set according to the scheme described in Table 10. The effluent was detected at 220 nm using a UV detector.
The solid-state chemical stability of the α-crystalline form of linaclotide was then compared to that of amorphous form linaclotide. Known quantities of test materials were placed in 45 cc high-density polyethylene bottles. The bottles were induction sealed and placed in 40° C./75% RH stability chamber. Two bottles were then withdrawn at the time points of 2 weeks, at 1 month, at 2 months, and at 3 months, and were analyzed after adequate dilution for assay.

[1] = 3 months storage, 40° C./75% RH

| SMILES | Degradation Products (1 Month at 40° C./75% RH) [Wt %] | Normalized Assay (1 Month at 40° C./75% RH) [Wt %] | Degradation Products (2 Months at 40° C./75% RH) [Wt %] | Normalized Assay (2 Months at 40° C./75% RH) [Wt %] | Degradation Products (2 Weeks at 40° C./75% RH) [Wt %] | Normalized Assay (2 Weeks at 40° C./75% RH) [Wt %] | Degradation Products (3 Months at 40° C./75% RH) [Wt %] | Normalized Assay (3 Months at 40° C./75% RH) [Wt %] | Remaining fraction (not assay, not degradation products), may comprise multimers [%] | Acetylation Product [1] [Wt %] | Hydrolysis Product [1] [Wt %] | Non-disulfide linked multimers [1] [Wt %] | Water-Mediated Products [1] [Wt %] | Degradation Products (Initial, solid state) [Wt %] | Normalized Assay (Initial, solid state) [Wt %] | Remaining fraction (not assay, not degradation products), may comprise multimers (listed as α-form linaclotide) [%] | Acid-induced hydrolysis (in words) [1] | Concentration of degradation products compared with amorphous linaclotide (in words) (40° C./75% RH, up to 3 months) | Multimer formation compared with amorphous linaclotide (in words) (40° C./75% RH, up to 3 months) | Stability profile compared with amorphous linaclotide (in words) (40° C./75% RH, up to 3 months) |
| --- | --- | --- | --- | --- | --- | --- | --- | --- | --- | --- | --- | --- | --- | --- | --- | --- | --- | --- | --- | --- |
| C[C@@H]1NC(=O)[C@@H]2CCCN2C(=O)[C@H](CC(N)=O)NC(=O)[C@@H]2CSSC[C@H](N)C(=O)N[C@H]3CSSC[C@H](NC1=O)C(=O)N[C@@H]([C@@H](C)O)C(=O)NCC(=O)N[C@H](C(=O)N[C@@H](Cc1ccc(O)cc1)C(=O)O)CSSC[C@H](NC(=O)[C@H](Cc1ccc(O)cc1)NC(=O)[C@H](CCC(=O)O)NC3=O)C(=O)N2 [Amorphous Linaclotide, linaclotide] (H-CCEYCCNPACTGCY-OH; disulfide 1-6, 2-10, 5-13) | 5.6 | 79.1 | 9.3 | 74.5 | 3.6 | 84.0 | 12.0 | 68.8 | 19.2 | 2.39 | 0.30 | 1.96 | 7.00 | 2.1 | 100.0 |  |  |  |  |  |
| C[C@@H]1NC(=O)[C@@H]2CCCN2C(=O)[C@H](CC(N)=O)NC(=O)[C@@H]2CSSC[C@H](N)C(=O)N[C@H]3CSSC[C@H](NC1=O)C(=O)N[C@@H]([C@@H](C)O)C(=O)NCC(=O)N[C@H](C(=O)N[C@@H](Cc1ccc(O)cc1)C(=O)O)CSSC[C@H](NC(=O)[C@H](Cc1ccc(O)cc1)NC(=O)[C@H](CCC(=O)O)NC3=O)C(=O)N2 [α-Crystalline Linaclotide, linaclotide] (H-CCEYCCNPACTGCY-OH; disulfide 1-6, 2-10, 5-13) | 3.8 | 91.9 | 5.1 | 89.7 | 2.6 | 94.8 | 7.5 | 88.4 |  | 0.31 | 5.70 | 0.07 | 0.40 | 2.4 | 100.0 | 4.1 | pronounced | significantly lower concentration of degradation products | significantly less multimer formation | substantially better stability profile than amorphous linaclotide |

From patent US8293704B2, “Crystalline form of linaclotide” (priority 2009, dated 2012)
